Results taken from patent US11046889B2, “Polymerizable compound and optically anisotropic body” (DIC Corporation, priority 2015, dated 2021).

Assay: Solubility check of 20 wt % solutions in organic solvents
Assay type: physicochemical
Set-up: key: A: the compound dissolves at room temperature; B: the compound does not dissolve at room temperature but dissolves when heated to 60° C.; the compound does not dissolve even when heated to 60° C
Settings: room temperature or heated to 60° C.; for Results of Solubility Chloroform: 20 wt % solution in chloroform; for Results of Solubility Cyclopentanone: 20 wt % solution in cyclopentanone; for Results of Solubility MEK: 20 wt % solution in methyl ethyl ketone (MEK); for Results of Solubility MIBK: 20 wt % solution in methyl isobutyl ketone (MIBK); for Results of Solubility Toluene: 20 wt % solution in toluene; for Results of Solubility Trichloroethane: 20 wt % solution in trichloroethane
Method: 20 wt % solutions of each of the compounds to be evaluated in chloroform, trichloroethane, cyclopentanone, methyl ethyl ketone (MEK), methyl isobutyl ketone (MIBK), and toluene were prepared to check the solubilities of the compound to be evaluated.

C=CC(=O)OCCOCCOC(=O)C1CCC(C(=O)OC2CCC(C(=O)Oc3ccc(OC(=O)C4CCC(OC(=O)C5CCC(C(=O)OCCOCCOC(=O)C=C)CC5)CC4)c4c3SC(=C3C(=O)N(c5ccccc5)N=C3C(=O)OCC)S4)CC2)CC1 (stereo not drawn) [Compound I-14]
Results of Solubility Chloroform: A
Results of Solubility Cyclopentanone: B
Results of Solubility MEK: B
Results of Solubility MIBK: C
Results of Solubility Toluene: B
Results of Solubility Trichloroethane: A

C=CC(=O)OCCCOC(=O)C1CCC(C(=O)OC2CCC(C(=O)Oc3ccc(OC(=O)C4CCC(OC(=O)C5CCC(C(=O)OCCCOC(=O)C=C)CC5)CC4)c4c3SC(=C3C(=O)N(c5ccccc5)N=C3C(=O)OCC)S4)CC2)CC1 (stereo not drawn) [Compound R-3, reference compound]
Results of Solubility Chloroform: A
Results of Solubility Cyclopentanone: C
Results of Solubility MEK: C
Results of Solubility MIBK: C
Results of Solubility Toluene: B
Results of Solubility Trichloroethane: B

C=CC(=O)OCCCCCCOc1ccc(OC(=O)C2CCC(C(=O)Oc3ccc(C4CCC(CCC)CC4)cc3/C=N/N(CCOCCOC)c3nc4ccccc4s3)CC2)cc1 (stereo not drawn) [Compound I-7]
Results of Solubility Chloroform: A
Results of Solubility Cyclopentanone: A
Results of Solubility MEK: A
Results of Solubility MIBK: B
Results of Solubility Toluene: A
Results of Solubility Trichloroethane: A

C=CC(=O)OCCCCCCOc1ccc(OC(=O)C2CCC(C(=O)Oc3ccc(OC(=O)C4CCC(C(=O)Oc5ccc(OCCCCCCOC(=O)C=C)cc5)CC4)c4sc(-c5ccc([N+](=O)[O-])cc5)nc34)CC2)cc1 (stereo not drawn) [Compound R-2, reference compound]
Results of Solubility Chloroform: B
Results of Solubility Cyclopentanone: C
Results of Solubility MEK: C
Results of Solubility MIBK: C
Results of Solubility Toluene: B
Results of Solubility Trichloroethane: B

C=CC(=O)OCCCCOC(=O)C1CCC(C(=O)OC2CCC(C(=O)Oc3ccc(OC(=O)C4CCC(OC(=O)C5CCC(C(=O)OCCCCOC(=O)C=C)CC5)CC4)c4c3SC(=C(C#N)C(=O)OCCOCCOC(=O)C=C)S4)CC2)CC1 (stereo not drawn) [Compound I-15]
Results of Solubility Chloroform: A
Results of Solubility Cyclopentanone: B
Results of Solubility MEK: B
Results of Solubility MIBK: C
Results of Solubility Toluene: B
Results of Solubility Trichloroethane: A

C=CC(=O)OCCOCCOCCOc1ccc(OC(=O)C2CCC(C(=O)Oc3ccc(C4CCC(CCC)CC4)cc3/C=N/N(CCCCCC)c3nc4ccccc4s3)CC2)cc1 (stereo not drawn) [Compound I-3]
Results of Solubility Chloroform: A
Results of Solubility Cyclopentanone: A
Results of Solubility MEK: C
Results of Solubility MIBK: C
Results of Solubility Toluene: B
Results of Solubility Trichloroethane: A

C=CC(=O)OCCCCCCOc1ccc(OC(=O)C2CCC(C(=O)Oc3ccc(OC(=O)C4CCC(C(=O)Oc5ccc(OCCCCCCOC(=O)C=C)cc5)CC4)c(/C=N/N(COCCOC)c4nc5ccccc5s4)c3)CC2)cc1 (stereo not drawn) [Compound R-1, reference compound]
Results of Solubility Chloroform: A
Results of Solubility Cyclopentanone: B
Results of Solubility MEK: C
Results of Solubility MIBK: C
Results of Solubility Toluene: B
Results of Solubility Trichloroethane: B

C=CC(=O)OCCOCCOCCOc1ccc(C(=O)Oc2ccc(-c3ccc(CCC)cc3)cc2/C=N/Nc2nc3ccccc3s2)cc1 [Compound I-1]
Results of Solubility Chloroform: A
Results of Solubility Cyclopentanone: A
Results of Solubility MEK: A
Results of Solubility MIBK: A
Results of Solubility Toluene: A
Results of Solubility Trichloroethane: A

C=CC(=O)OCCCCCCOc1ccc(OC(=O)C2CCC(COc3ccc(OCC4CCC(C(=O)Oc5ccc(OCCCCCCOC(=O)C=C)cc5)CC4)c(/C=N/N(CCOCCOC)c4nc5ccccc5s4)c3)CC2)cc1 (stereo not drawn) [Compound I-6]
Results of Solubility Chloroform: A
Results of Solubility Cyclopentanone: A
Results of Solubility MEK: B
Results of Solubility MIBK: B
Results of Solubility Toluene: B
Results of Solubility Trichloroethane: A

C=CC(=O)OCCCOc1ccc(OC(=O)C2CCC(COc3ccc(OCC4CCC(C(=O)Oc5ccc(OCCCOC(=O)C=C)cc5)CC4)c(/C=N/N(CCOCCOC)c4nc5ccccc5s4)c3)CC2)cc1 (stereo not drawn) [Compound I-8]
Results of Solubility Chloroform: A
Results of Solubility Cyclopentanone: A
Results of Solubility MEK: B
Results of Solubility MIBK: B
Results of Solubility Toluene: A
Results of Solubility Trichloroethane: A

C=CC(=O)OCCOCCOCCOc1ccc(OC(=O)C2CCC(C(=O)Oc3ccc(C4CCC(CCC)CC4)cc3/C=N/Nc3nc4ccccc4s3)CC2)cc1 (stereo not drawn) [Compound I-2]
Results of Solubility Chloroform: A
Results of Solubility Cyclopentanone: A
Results of Solubility MEK: A
Results of Solubility MIBK: B
Results of Solubility Toluene: A
Results of Solubility Trichloroethane: A

C=CC(=O)OCCOCCOc1ccc(OC(=O)C2CCC(C(=O)Oc3ccc(OC(=O)C4CCC(C(=O)Oc5ccc(OCCOCCOC(=O)C=C)cc5)CC4)c4sc(-c5cc6c(C)cc(C)cc6o5)nc34)CC2)cc1 (stereo not drawn) [Compound I-13]
Results of Solubility Chloroform: A
Results of Solubility Cyclopentanone: B
Results of Solubility MEK: C
Results of Solubility MIBK: C
Results of Solubility Toluene: B
Results of Solubility Trichloroethane: A

C=C(C)C(=O)OCCCCCCOc1ccc(OC(=O)C2CCC(COc3ccc(OCC4CCC(C(=O)Oc5ccc(OCCCCCCOC(=O)C(=C)C)cc5)CC4)c(/C=N/N(CCOCCOC)c4nc5ccccc5s4)c3)CC2)cc1 (stereo not drawn) [Compound I-16]
Results of Solubility Chloroform: A
Results of Solubility Cyclopentanone: A
Results of Solubility MEK: B
Results of Solubility MIBK: B
Results of Solubility Toluene: A
Results of Solubility Trichloroethane: A

C=CC(=O)OCCCCCCOc1ccc(OC(=O)C2CCC(C(=O)Oc3ccc(C4CCC(C5CCC(CCC)CC5)CC4)cc3/C=N/N(CCOCCOC)c3nc4ccccc4s3)CC2)cc1 (stereo not drawn) [Compound I-17]
Results of Solubility Chloroform: A
Results of Solubility Cyclopentanone: B
Results of Solubility MEK: C
Results of Solubility MIBK: C
Results of Solubility Toluene: B
Results of Solubility Trichloroethane: B

C=CC(=O)OCCCCCCOc1ccc(OC(=O)C2CCC(COc3ccc(-c4ccc(CCC)cc4)c(/C=N/N(CCOCCOC)c4nc5ccccc5s4)c3)CC2)cc1 (stereo not drawn) [Compound I-11]
Results of Solubility Chloroform: A
Results of Solubility Cyclopentanone: A
Results of Solubility MEK: B
Results of Solubility MIBK: B
Results of Solubility Toluene: A
Results of Solubility Trichloroethane: A

C=CC(=O)OCCOCCOCCOc1ccc(OC(=O)C2CCC(COc3ccc(OCC4CCC(C(=O)Oc5ccc(OCCOCCOCCOC(=O)C=C)cc5)CC4)c(/C=N/N(CCCCCC)c4nc5ccccc5s4)c3)CC2)cc1 (stereo not drawn) [Compound I-5]
Results of Solubility Chloroform: A
Results of Solubility Cyclopentanone: A
Results of Solubility MEK: B
Results of Solubility MIBK: B
Results of Solubility Toluene: A
Results of Solubility Trichloroethane: A

C=CC(=O)OCCCCCCOc1ccc(OC(=O)C2CCC(COc3ccc(OCC4CCC(C(=O)Oc5ccc(OCCCCCCOC(=O)C=C)cc5)CC4)c(/C=N/N(CCOCCOCCOC(=O)C=C)c4nc5ccccc5s4)c3)CC2)cc1 (stereo not drawn) [Compound I-9]
Results of Solubility Chloroform: A
Results of Solubility Cyclopentanone: A
Results of Solubility MEK: A
Results of Solubility MIBK: B
Results of Solubility Toluene: A
Results of Solubility Trichloroethane: A

C=CC(=O)OCCOCCOCCOc1ccc(OC(=O)C2CCC(C(=O)Oc3ccc(OC(=O)C4CCC(C(=O)Oc5ccc(OCCOCCOCCOC(=O)C=C)cc5)CC4)c4sc(-c5ccc([N+](=O)[O-])cc5)nc34)CC2)cc1 (stereo not drawn) [Compound I-12]
Results of Solubility Chloroform: A
Results of Solubility Cyclopentanone: B
Results of Solubility MEK: B
Results of Solubility MIBK: C
Results of Solubility Toluene: B
Results of Solubility Trichloroethane: A

C=CC(=O)OCCCCCCOc1ccc(OC(=O)C2CCC(COc3ccc(C4CCC(CCC)CC4)cc3/C=N/N(CCOCCOC)c3nc4ccccc4s3)CC2)cc1 (stereo not drawn) [Compound I-10]
Results of Solubility Chloroform: A
Results of Solubility Cyclopentanone: A
Results of Solubility MEK: B
Results of Solubility MIBK: B
Results of Solubility Toluene: A
Results of Solubility Trichloroethane: A

C=CC(=O)OCCOCCOCCOc1ccc(OC(=O)C2CCC(C(=O)Oc3ccc(C4CCC(C5CCC(CCC)CC5)CC4)cc3/C=N/N(CCCCCC)c3nc4ccccc4s3)CC2)cc1 (stereo not drawn) [Compound I-4]
Results of Solubility Chloroform: A
Results of Solubility Cyclopentanone: B
Results of Solubility MEK: C
Results of Solubility MIBK: C
Results of Solubility Toluene: B
Results of Solubility Trichloroethane: B
